Test results taken from PMC9824012, “Exploring Antimicrobial Peptides Efficacy against Fire Blight (Erwinia amylovora)” (Plants, 2022).
Read-outs that look alike come from different tables or passages of the source. Ends that are not written are not given here.

Columns and labels:
Erwinia amylovora [1] = assay: In vivo antibacterial activity on inoculated immature pear fruits; parameters: species or system Erwinia amylovora on pear fruits (cv. 'Recchia falsa'); details: immature pears, 6 days at 25 °C, eight replicates
Method: To evaluate the in vivo antibacterial activity of selected AMPs, immature pear fruits (cv. ‘Recchia falsa’) were inoculated with E. amylovora and AMPs were applied. Briefly, ten-week-old pears were disinfected by immersion in a 70% ethanol solution for 2 min and then rinsed 3 times in sterile distilled water. Disinfected fruits were pricked to approximately 5 mm deep, with a sterile micropipette tip and inoculated with 20 µL of E. amylovora suspension (10^8 CFU/mL). Once the fruits had absorbed the bacteria, two concentrations of peptides (50 and 250 µM) were used; 20 µL of the concentration was introduced into the inoculation site and incubated in a humid chamber at 25 °C for 6 days. Fruits inoculated with sterile water and with E. amylovora suspension were included as controls. The experiment consisted of eight replicates per treatment, and symptoms were recorded at 6 days post-infection. The symptoms developed in immature pears (i.e., necrosis or bacterial exudates) were evaluated by measuring the diameter of necrotic lesions. The data were then analyzed using variance analysis (ANOVA), followed by Duncan’s multiple range test (α = 0.05), using SPSS statistical software (version 24.0, IBM, Armonk, N.Y., USA). All data were presented as mean values ± standard deviation (SD).

Erwinia amylovora [2] = assay: Spot test screening of AMPs on plates; assay type: cell-based, Erwinia amylovora strain PGL Z1; parameters: key to Spot test result at 1 mM / Spot test result at 500 µM / Spot test result at 250 µM / Spot test result at 100 µM / Spot test result at 50 µM / Spot test result at 25 µM / Spot test result at 12.5 µM: +: Clear plaque formation; -: no plaque formation; details: for Spot test result at 12.5 µM: 5 µL peptide at 12.5 µM spotted on plate with E. amylovora 10^8 CFU/mL; for Spot test result at 12.5 µM / Spot test result at 25 µM / Spot test result at 50 µM / Spot test result at 100 µM / Spot test result at 250 µM / Spot test result at 500 µM / Spot test result at 1 mM: overnight at 25 °C; for Spot test result at 25 µM: 5 µL peptide at 25 µM spotted on plate with E. amylovora 10^8 CFU/mL; for Spot test result at 50 µM: 5 µL peptide at 50 µM spotted on plate with E. amylovora 10^8 CFU/mL; for Spot test result at 100 µM: 5 µL peptide at 100 µM spotted on plate with E. amylovora 10^8 CFU/mL; for Spot test result at 250 µM: 5 µL peptide at 250 µM spotted on plate with E. amylovora 10^8 CFU/mL; for Spot test result at 500 µM: 5 µL peptide at 500 µM spotted on plate with E. amylovora 10^8 CFU/mL; for Spot test result at 1 mM: 5 µL peptide at 1 mM spotted on plate with E. amylovora 10^8 CFU/mL; for Spot test, killing of E. amylovora at 50 µM (in words): peptide 50 µM
Method: The bacterial material consisted of E. amylovora strain PGL Z1, isolated in 2013 from pear in Apulia region (Italy), and Xanthomonas campestris pv. campestris strain CFBP 1710 (X. campestris), isolated in 1975 from Brassica oleracea var. botrytis in France, which was used as a control to investigate the bactericidal activity and action mode of AMPs against two different bacteria. The bacterial strains were cultured on yeast extract peptone glucose agar (YPGA) and broth (YPG) media, consisting of 0.5% yeast extract, 0.5% peptone, 1% glucose and 1.5% agar. E. amylovora and X. campestris cell suspensions were prepared in sterile distilled water and the suspensions were adjusted to an optical density at 600 nm (OD600) of 0.1, which corresponds approximately to 10^8 CFU/mL.
The nine AMPs were screened using the spot test to select those with the best antibacterial activity against E. amylovora. Briefly, 300 µL of E. amylovora suspension (10^8 CFU/mL) was poured into the plates and maintained at room temperature for 15 min. Subsequently, 5 μL from each peptide at different concentrations (1000, 500, 250, 100, 50, 25 and 12.5 μM) was spotted onto the surface of the plates, followed by overnight incubation at 25 °C. Sterile distilled water was spotted in the plates as a control.
Supplementary Table S1. Results of the spot tests for the nine antimicrobial peptides used against Erwinia
Ascaphin-8 GF-19 + + + + + - -
DASamP1 FF-13 + + + - - - -
DASamP2 IL-14 + + + + + - -
Lycotoxin I IL-25 + + + + - - -
Maculatin 1.3 GF-21 + + + - - - -
Piscidin 1 FG-22 + + + + + - -
BP178 KL-29 + + + + + + -
RIJK2 RV-12 + + + - - - -
+: Clear plaque formation; -: no plaque formation.

horse erythrocyte cells = assay type: cell-based
Method: (§1) The possible toxicity of the selected peptides was evaluated using immature pear fruits (cv. ‘Recchia falsa’), and horse erythrocyte cells, respectively, as plant and animal cell models. Briefly, six fruits for each peptide were pricked to approximately 5 mm deep and inoculated with 100 µL of the corresponding peptide at 50 and 250 µM concentrations. Fruits were kept in a chamber at room temperature for 5 days and repeatedly examined for the development of lesions. The peptide toxicity was measured as lesion diameter. Erythrocytes from a horse blood sample (provided by the University of Bari, Department of Veterinary Medicine, Valenzano, Italy) were used for the hemolytic assay. The erythrocytes were challenged with AMPs at 50 and 250 µM for 3 h and their possible hemolytic activity was observed under light microscope.

immature pear fruits = assay type: in vivo, pear (cv. 'Recchia falsa')
Method: as §1

Erwinia amylovora [3] = assay: Fluorescence microscopy LIVE/DEAD BacLight (SYTO9/PI); assay type: cell-based, Erwinia amylovora strain PGL Z1; details: 1 h, calculated from SYTO9 and PI counts
Method: The bactericidal activity of the selected peptides (GF19, FG22, IL14, and KL29) was assessed by a test contact for 24 h, as described (Section 2.3), coupled with v-qPCR assay using the PMAxx™ (Biotium, Rome, Italy). PMAxx™ is a photo-reactive dye that binds to DNA with high affinity; upon cell lysis, it covalently attaches to disrupted DNA that cannot be amplified by PCR. This unique feature makes PMAxx™ extremely useful in selective detection of bacterial cells with intact plasma membranes by qPCR. Briefly, after 24 h at 25 °C, 200 µL of the mixture was transferred to a new tube and treated with PMAxx at a final concentration of 7.5 μM. Subsequently, samples were incubated in the dark at room temperature for 8 min, followed by photoactivation for 15 min. Genomic DNA of all samples was extracted using the cetyltrimethylammonium bromide (CTAB) method. v-qPCR was carried out in a thermocycler apparatus (Bio-Rad CFX96, BioRad, Milan, Italy), using Ea-lsc primers and conditions reported in Laforest et al.. The v-qPCR cycles consisted of an initial denaturation step of 95 °C for 5 min; 45 cycles of 95 °C for 30 s and 60 °C for 30 s with fluorescence readings at each cycle. For the FM assay, aliquots of E. amylovora suspension were incubated with 50 and 250 μM of selected peptides for 1 h at room temperature. The same protocol was used for X. campestris at different concentrations (100, 50, 25, 12.5, 6.25, 2 μM) using KL29 peptide, known for its potent bactericidal activity against X. campestris. The LIVE/DEAD ®BacLight™ viability kit (ThermoFisher Scientific, Milan, Italy) was used according to the manufacturer’s recommendation to assess the integrity of bacteria cells treated with the peptides at 1 h post-infection (Stocks, 2004). Briefly, 9 μL of sample was mixed with 0.5 μL of SYTO9 and 0.5 μL of propidium iodide (PI) for 15 min at room temperature in the dark. Photomicrographs were taken with a Nikon E800 microscope using a fluorescein isothiocyanate (480/30 excitation filter, DM505 dichroic mirror, 535/40 emission filter) and tetramethyl rhodamine isocyanate (546/10 excitation filter, DM575 dichroic mirror, 590 emission filter) fluorescence filter sets.
Supplementary Table S2. The statistical analysis consisted of counting the coloured spo ts (green: SYTO9 and red: PI) in the different channels of 10 replicas for the two concentrations of each antimicrobial peptide and the relative percentages of viable cells is calculated.
250 µM 50 µM % of viability
(1 picture or pasted object on this page, not shown here)

[4] = 20 µL peptide at 50 µM into inoculation site
[5] = 20 µL peptide at 250 µM into inoculation site
[6] = peptide 50 and 250 µM, 3 h, light microscope
[7] = 100 µL peptide at 50 and 250 µM, 5 days at room temperature, six fruits per peptide

| Substance | Reduction of fire blight symptoms (necrotic lesion diameter) (Erwinia amylovora [1]; [4]) [%] | Reduction of fire blight symptoms (necrotic lesion diameter) (Erwinia amylovora [1]; [5]) [%] | Spot test result at 12.5 µM (Erwinia amylovora [2]) | Spot test result at 25 µM (Erwinia amylovora [2]) | Spot test result at 50 µM (Erwinia amylovora [2]) | Spot test result at 100 µM (Erwinia amylovora [2]) | Spot test result at 250 µM (Erwinia amylovora [2]) | Spot test result at 500 µM (Erwinia amylovora [2]) | Spot test result at 1 mM (Erwinia amylovora [2]) | Spot test, killing of E. amylovora at 50 µM (in words) (Erwinia amylovora [2]) | Toxicity (hemolytic or cytotoxic activity) on horse erythrocytes (in words) (horse erythrocyte cells; [6]) | Toxicity (hypersensitive or cytotoxic activity) on pear fruits (in words) (immature pear fruits; [7]) | % of viability (Erwinia amylovora [3]; peptide 50 µM) [%] | % of viability (Erwinia amylovora [3]; peptide 250 µM) [%] | Toxicity (hemolytic or cytotoxic activity) on horse erythrocytes (in words) (horse erythrocyte cells) | Toxicity (hypersensitive or cytotoxic activity) on pear fruits (in words) (immature pear fruits; in vivo) |
| --- | --- | --- | --- | --- | --- | --- | --- | --- | --- | --- | --- | --- | --- | --- | --- | --- |
| IKWKKLLRAAKRIL-NH2 [IL14, DASamP2] | 61 | 76 | - | - | + | + | + | + | + | could kill E. amylovora | toxicologically safe for plant and animal cells | toxicologically safe for plant and animal cells | 15 | 48 |  |  |
| GFKDLLKGAAKALVKTVLF-NH2 [GF19, Ascaphin-8] | 43 | 48 | - | - | + | + | + | + | + | could kill E. amylovora | toxicologically safe for plant and animal cells | toxicologically safe for plant and animal cells | 44 | 64 |  |  |
| FFGKVLKLIRKIF-NH2 [FF13, DASamP1, synthetic antimicrobial peptide, synthesized by ProteoGenix] |  |  | - | - | - | - | + | + | + |  |  |  |  |  |  |  |
| VQFRIRVRIVIRK-NH2 [VK13, 1036, synthetic antimicrobial peptide, synthesized by ProteoGenix] |  |  | - | - | - | - | + | + | + |  |  |  |  |  |  |  |
| Lycotoxin I [IL25] |  |  | - | - | - | + | + | + | + |  |  |  |  |  |  |  |
| RIVWVRIRRWFV-NH2 [RV12, RIJK2, synthetic antimicrobial peptide, synthesized by ProteoGenix] |  |  | - | - | - | - | + | + | + |  |  |  |  |  |  |  |
| FFHHIFRGIVHVGKTIHRLVTG [FG22, Piscidin 1] |  |  |  |  |  |  |  |  |  |  |  |  |  |  | toxicologically safe for plant and animal cells | toxicologically safe for plant and animal cells |
| GLLGLLGSVVSHVVPAIVGHF-NH2 [GF21, Maculatin 1.3, antimicrobial peptide of frog origin, synthesized by ProteoGenix] |  |  | - | - | - | - | + | + | + |  |  |  |  |  |  |  |
